The source of these data is patent EP4772497A1, “POLYMORPHS OF NITROGEN-CONTAINING HETEROCYCLIC COMPOUNDS, AND USES THEREOF” (BNH Research Co., Ltd., priority 2023, dated 2025).

The nature of data set [1]: Parallel artificial membrane permeability assay (PAMPA) for BBB permeability. The class given is in vitro ADME. The procedure:
• PAMPA: PMBBB-096 Kit • Assay format: 96-well plate • Reference substance: Imipramine (H) (10 µM) • Test substance concentration: 10 µM • Number of replicates: 3 • Reaction time: 6 hours at 25°C on a shaker (75 - 80 rpm) • Analytical method: LC-MS/MS • Data processing: Pe (cm/s)
The test compounds (crystalline forms A and C) were dissolved in DMSO at a concentration of 10 mM […] to prepare standard solutions. Next, dried brain lipids were resuspended in 600 µL dodecane to prepare a BBB lipid solution in dodecane. Pipetting up and down was repeated (~100 times) until all dried brain lipids were dissolved (vortexing or sonication may be helpful). A 10 µM reaction solution in PBS containing 5% DMSO was prepared.
The experiments were conducted in a 96-well plate using the prepared reaction solution of each test compound and the BBB lipid solution according to the following assay procedure. • 1. 500 µL of a 500 µM test compound solution (prepared by mixing 25 µL of a 10 mM test compound + 475 µL of PBS (pH 7.2) in DMSO) was prepared in a separate centrifuge tube. When a permeability control was used, it was diluted to 500 µM using PBS (prepared by mixing 25 µL of permeability control + 475 µL of PBS (pH 7.2)). • 2. For each test compound and control, a 200 µM equilibrium standard was prepared in a separate tube (by mixing 80 µL of 500 µM test compound or control with 120 µL of PBS (pH 7.2)). […] The absorbance spectrum from 200 nm to 500 nm was measured at 10 nm intervals to determine the peak absorbance of the test compounds. […] The peak absorbances of the high-permeability and low-permeability controls are 250 nm and 270 nm, respectively.
For the compounds and permeability controls, the permeability rate (Pe) was determined using the following equation: Pe = C × −ln(1−(ODA)/(ODE))cm/s [formula]
Here, ODA is the absorbance of the acceptor solution minus the blank, and ODE is the absorbance of the equilibrium standard minus the blank. For each absorbance value, the peak absorbance determined for each test was used. […]

Data set [2] relates to APP/PS1 mice. Description: TC synaptic potency and GABA/AMPA ratio in the sensory cerebral cortex after dosing. The class given is in vivo. Conditions: form C 1 mg/kg orally, aducanumab 5 mg/kg i.v. The procedure:
Using APP/PS1 mice (15 months old, Taconic Biosciences), an animal model of Alzheimer's disease, the efficacy of crystalline form C and aducanumab (Creative Biolabs) was evaluated when administered alone or in combination, respectively. A control group and four experimental groups were prepared as follows (see Table 14).
For the control antibody, an isotype antibody was administered intravenously, and for the vehicle, 200 µL of a mixed solution of DMSO (10):PEG400 (44):saline (55) was administered orally. Five mice were used for each treatment group.
Aducanumab was administered at a dose of 5 mg/kg, and the control antibody, which is an inactivated form of aducanumab, was administered at a dose of 5 mg/kg. For the intravenous administration, a total of four injections were administered into the tail vein on the starting day of the experiment and at one-week intervals thereafter.
For oral administration, 1 mg/kg of the compound of the present disclosure (crystalline form C, BnH-015B) or a vehicle was administered orally once daily for about 11 to 13 days, starting about 2 weeks after the initiation of the experiment.
Meanwhile, the efficacy of the compound against Alzheimer's disease was evaluated by measuring the potency and the GABA/AMPA ratio in the sensory cerebral cortex. […]

Data set [3] concerns IL-33. Description: Mouse proteome profiling array analysis of somatosensory cortex homogenates. The data set is classed as in vivo. To be noted: APP/PS1 mice, 1 mg/kg orally for 14 days, cerebral cortex, vs vehicle-treated control group. The method, then: (§1) To evaluate the efficacy of crystalline form C of the present disclosure in inhibiting amyloid-beta protein accumulation, mouse proteomic profiling array analysis and Bielschowsky silver staining were performed. 15-week-old APP/PS1 mice were used in the experiment, and crystalline form C of the present disclosure (1 mg/kg of BnH-015B) or a vehicle was administered orally.
(§2) Relative levels of mouse cytokines, chemokines, and growth factors were determined using a membrane-based antibody array kit (Proteome Profiler Mouse XL Cytokine Array Kit, ARY028 R&D Systems, Inc., Minneapolis, USA) which features 111 capture antibodies coated in duplicate on a nitrocellulose membrane. Homogenates of the somatosensory cortex of APP/PS1 mice were prepared and tested according to the manufacturer's instructions. The array was detected using an X-ray film (Super RX, Fujifilm, Tokyo, Japan), and the film was read using an Epson scanner (L655 series, Epson, Suwa, Japan), followed by image analysis using ImageJ with the Protein Array Analyzer Macro (National Institutes of Health, Bethesda, MD, USA). […]
(§3) Statistical analysis was performed using GraphPad Prism 9.5.0 software (San Diego, CA, USA). […] All data are expressed as mean ± SEM.

In data set [4] the test system is OPN. The data set is described as above. The data set is classed as in vivo. Conditions: APP/PS1 mice, 1 mg/kg orally for 14 days, cerebral cortex, vs vehicle-treated control group. The method, then: as §1, §2, §3

Consider `C[C@@H]1CC[C@H](C(=O)O)CN1C(=O)Cc1ccc(F)cc1Cl` [Crystalline form C, (3S,6R)-1-(2-(2-chloro-4-fluorophenyl)acetyl)-6-methylpiperidine-3-carboxylic acid], for which the “PAMPA Pe” value in data set [1] (BBB lipid membrane, PBS (pH 7.2)) is given as 11.79 10^-9 cm/sec. The “BBB permeability, comparison of forms” value in data set [1] (PAMPA) was “superior BBB permeability compared to crystalline form A”. Besides, in data set [2], the “balance of excitation/inhibition (GABA/AMPA ratio)” value is “maintaining the balance of excitation/inhibition” and the “excitatory TC synaptic potency (TC potency)” value is recorded as “increased excitatory TC synaptic potency”. In data set [3], the “expression level of IL-33” value is listed as “significantly increased”. Besides, the OPN expression result in data set [4] is “suppressed”.
